Measured values taken from patent US20140088114A1, “FUSED BICYCLIC KINASE INHIBITORS” (OSI Pharmaceuticals ,LLC, priority 2011, published 2014).
Like-named read-outs stand apart in the source and are kept apart here.

Experiments:
Type in all cases: cell-based
RON = molecular target: T1, RON (Homo sapiens, UniProt Q04912); experiment: sfRON cell mechanistic assay (HeLa), phosphorylated RON
T1 construct: expressed in transfected cells; host or cells: HeLa
T1 sequence (Q04912 913-1400 limits assumed): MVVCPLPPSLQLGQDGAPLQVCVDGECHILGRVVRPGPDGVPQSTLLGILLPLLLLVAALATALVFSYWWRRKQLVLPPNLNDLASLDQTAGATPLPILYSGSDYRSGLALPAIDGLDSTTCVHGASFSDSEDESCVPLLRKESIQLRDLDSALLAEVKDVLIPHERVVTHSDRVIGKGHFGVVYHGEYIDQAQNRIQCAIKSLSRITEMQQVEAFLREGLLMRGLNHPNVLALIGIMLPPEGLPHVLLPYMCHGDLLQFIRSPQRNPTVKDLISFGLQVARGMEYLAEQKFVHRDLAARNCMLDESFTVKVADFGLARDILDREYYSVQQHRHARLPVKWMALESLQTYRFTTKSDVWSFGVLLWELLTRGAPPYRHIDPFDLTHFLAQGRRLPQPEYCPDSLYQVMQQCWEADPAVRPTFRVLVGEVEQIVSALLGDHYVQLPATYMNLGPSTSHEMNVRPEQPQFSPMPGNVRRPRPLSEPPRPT
Procedure: The cellular activity of the compounds of the present invention against RON may be determined by the following procedure. HeLa cells were plated in Falcon 3072 96-well plates in growth media (DMEM, 10% FBS, 1% L-glutamine) at a density of 10000 cells/well and incubated at 37° C., 5% CO2 overnight. The following day, cells were transfected with 0.2 μg sfRON-pcDNA plasmid DNA with 0.5 μL Lipofectamine2000 per well in the presence of 50 μL OPTI-MEM, incubated at 37° C., 5% CO2 overnight. Costar 3915 96-well assay plates were coated with rabbit Anti-RON antibody at 2.0 μg/mL, sealed, and incubated overnight at 4° C. On the third day, coated plates were washed with PBS and blocked with 3% BSA. For the sfRON transfected cells, one-tenth volume of a 10× concentration of compounds was added to the wells in a 6-point dilution series. The dilution series was composed of an initial 1:5 dilution of a 10 mM DMSO stock solution of compound in DMSO, followed by a 1:10 dilution in growth media, for a final DMSO concentration on cells of 0.5%. Control wells were treated with 0.5% DMSO. The typical range of dilution was 10 μM to 3 nM. Once compound was added to the cells, plates were incubated for four hours at 37° C., 5% CO2. Plates were then washed in PBS, and lysed in triton-based lysis buffer. Lysates were transferred to the blocked capture plates. The phosphorylated RON levels were measured by incubating with a Goat polyclonal antibody against phosphorylated RON ([pYpY1238/1239]) followed by an anti-Goat antibody conjugated to HRP. Signal was measured on a Wallac Victor plate reader with luminance. The DMSO signal of the control wells was defined as 100% and the percent of inhibition of phosphorylated RON was expressed as percent of control. IC50 values were determined from the percent of control data using a standard four-parameter model.
(§1) The IC50 values of exemplary compounds of the present invention determined in a sfRON cell mechanistic assay using the HeLa cell line according to the procedures described herein in at least duplicate experiments are abbreviated as follows and are shown in Table 3: A, IC50≦0.03 μM; B, 0.03 μM<IC50≦0.1 μM; C, 0.1 μM<IC50≦1 μM; D, 1 μM<IC50≦3 μM; ND, not determined. The Example # of Table 3 corresponds to the compound example number as illustrated in the Examples section.

Aurora B = molecular target: T2, Aurora B (Homo sapiens, UniProt Q96GD4); experiment: Aurora B cell mechanistic assay (HT-29), phospho-Histone H3 (Ser10) ELISA; details: HT-29 cell line, inhibition of phospho-Histone H3 (Ser10), at least duplicate experiments (italicized if single); read-out: Aurora B mech IC50
T2 construct: HT-29 cells grown in complete growth media; endogenous in cells; host or cells: HT-29
Procedure: The cellular activity of the compounds of the present invention against Aurora B may be determined by the following procedure. HT-29 cells grown in complete growth media (McCoy's 5A, 10% FCS, 1% L-glutamine) were plated into wells of a 96 well tissue culture plate (Falcon 3072) at a cell density of 4×10^4 cells/0.09 ml media/well. Cells were subsequently incubated overnight in a 5% CO2 humidified 37° C. incubator. The following day 10 μl of a 10× stock of test compound serially diluted in media was added to the cells and incubated for 1 h at 37° C. at which time Calyculin A (Cell Signaling #9902) was added at a concentration of 100 nM and cells incubated for an additional 30 minutes in a 5% CO2 humidified 37° C. incubator. Media was then aspirated and cells lysed using a Triton based lysis buffer. Lysates were transferred to a pre-coated anti-Histone H3 antibody coated plate supplied by Cell Signaling in their PathScan phospho-Histone H3 (Ser10) ELISA kit (#7155). After an overnight incubation with lysate the ELISA was continued following the manufacturer's instructions. Signal was measured on a Wallac Victor plate reader at 450 nm. DMSO control treated cells served as 100% signal and an Aurora B kinase inhibitor served as 100% inhibition. The percent inhibition of phospho-Histone H3 (Ser10) was expressed as % control. IC50 values were calculated from the percent control data using a standard four-parameter model.
as §1, with “a Aurora B” for “a sfRON”, “the HT-29” for “the HeLa”, “Table 4:” for “Table 3:”, “determined. If only data from single experiments are available, the abbreviations are italicized.” for “determined.”, “Table 4” for “Table 3”

Karpas-299 cells = experiment: Karpas-299 cell proliferation assay (CellTiter-Glo); details: Homo sapiens, 72 h; Karpas-299 cell line (NPM-ALK), 3 days incubation, at least duplicate experiments; read-out: Prolif. IC50
Procedure: The effect of inhibitors on the proliferation of Karpas-299 cells (DSMZ no. ACC 31) was determined using the following protocol. Karpas-299 cells were plated in 96-well white tissue culture treated plates (Corning 3917) in growth medium (RPMI, 10% FCS) at a density of 5000 cells/well in a total volume of 135 μL and incubated at 37° C., 5% CO2, 95% humidity overnight. The following day, one-tenth volume of a 10× concentration of compounds was added to the wells in an 8-point dilution series. Compounds were serially diluted (1:4) in DMSO from a 10 mM stock solution prior to dilution in growth media to the 10× working concentrations (5% DMSO). Final concentration of DMSO in compound-treated wells was 0.5%. Control wells containing growth media or growth media/0.5% DMSO were included in all test plates. The typical dilution range is 10 μM to 0.1 nM. Once the compounds were added to the cells, plates were incubated for 3 days at 37° C., 5% CO2 at 95% humidity. After 72 hours, all cells and reagents were equilibrated to room temperature and 15 μL of CellTiter-Glo reagent (Promega #G7573) was added to each well. Plates were shaken on a platform for 10 minutes at room temperature prior to reading luminescence. The value of the signal of the control wells was set as 100% growth and growth inhibition was expressed as percent of control. IC50 values were determined from the percent of control data using a standard four-parameter curve fit equation.
as §1, with “a” for “a sfRON”, “cell proliferation” for “cell mechanistic”, “the Karpas-299” for “the HeLa”, “Table 5:” for “Table 3:”, “Table 5” for “Table 3”
The Karpas-299 cell line has a t(2;5) chromosomal translocation and expresses the NPM-ALK fusion protein, resulting in constitutively active ALK. […] Ther. 6(12):3314-22 (2007)]. With this “ALK-driven” cell line by ALK, the cell proliferation IC50 values can thus be used as surrogate for the p-ALK cell mechanistic IC50 values.

[1] = Table 6: comparison X = C1-3haloalkyl vs. X = C1-3alkyl, read-out: sfRON cell mechanistic

T2 sequence (Q96GD4 whole entry): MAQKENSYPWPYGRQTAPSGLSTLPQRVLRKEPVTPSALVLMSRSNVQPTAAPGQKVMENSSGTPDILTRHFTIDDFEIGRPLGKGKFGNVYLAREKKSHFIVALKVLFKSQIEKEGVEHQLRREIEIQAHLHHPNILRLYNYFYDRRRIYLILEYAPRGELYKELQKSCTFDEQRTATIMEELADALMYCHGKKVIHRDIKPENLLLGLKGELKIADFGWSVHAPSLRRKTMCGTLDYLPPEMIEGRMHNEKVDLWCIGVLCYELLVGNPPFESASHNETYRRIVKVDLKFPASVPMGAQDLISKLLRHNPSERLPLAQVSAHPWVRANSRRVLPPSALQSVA

COc1ccc(F)c(Cl)c1[C@@H](C)c1c[nH]c2ncc(-c3cnn([C@H]4CC[C@H](O)CC4)c3)cc12 [reference compound]
IC50 (RON; [1]): 100 to 1000 nM

C[C@H](c1c(OC(F)F)ccc(F)c1Cl)c1c[nH]c2ncc(-c3cnn([C@H]4CC[C@H](O)CC4)c3)cc12 [reference compound]
IC50 (RON; [1]): 30 to 100 nM

COc1ccc(F)c(Cl)c1[C@H](CF)c1c[nH]c2ncc(-c3cnn([C@H]4CC[C@H](O)CC4)c3)cc12 [Example 2, trans-4-(4-{3-[(1R)-1-(2-chloro-3-fluoro-6-methoxyphenyl)-2-fluoroethyl]-1H-pyrrolo[2,3-b]pyridin-5-yl}-1H-pyrazol-1-yl)cyclohexanol]
IC50 (Aurora B): 100 to 1000 nM | IC50 (RON; sfRON transfected HeLa cells, four hours incubation, inhibition of phosphorylated RON, at least duplicate experiments, read-out: sfRON mech IC50): 1000 to 3000 nM | IC50 (Karpas-299 cells): 100 to 1000 nM

CC(c1c(Cl)ccc(F)c1Cl)c1c[nH]c2ncc(-c3cnn(C)c3)cc12 (stereo not drawn) [reference compound]
IC50 (RON; [1]): 1000 to 3000 nM
